Literature values in patent US9119409B2, “Water soluble nutritional supplement for ruminants” (priority 2013, dated 2015).
Where two headings read alike, the source gives them in different places.

O=C([O-])[O-].[Ca+2] [calcium carbonate]
bioavailability (at a pH greater than 4): less than 1% | bioavailability (at a pH of 1.5): around 75%
